Activity calls are given as the source filed them. The rule behind the calls is not given here.
Test system: CCRIS mutagenicity, Ames/micronucleus/aberration tests
Experiment: CCRIS mutagenicity studies
[1] = Test System: AMES SALMONELLA TYPHIMURIUM, Strain/Indicator: TA100, Metabolic Activation: NONE, Method: PREINCUBATION
[2] = Test System: AMES SALMONELLA TYPHIMURIUM, Strain/Indicator: TA98, Metabolic Activation: NONE, Method: STANDARD PLATE

`CC1(C)CON(Cc2ccccc2Cl)C1=O` was tested, and the mutagenic call (End Point: In vivo chromosomal aberrations, Test System: Bone marrow, Species: Rat, Strain/Sex: Sprague-Dawley/Male, Route: Gavage) was “inactive; negative (purity 88.8%)”, the mutagenic call (Test System: Ames Salmonella typhimurium, Strain/Indicator: TA98, Metabolic Activation: None, Method: Standard Plate) was “inactive; negative (purity 92.4%)” and the mutagenic call (Test System: Ames Salmonella typhimurium, Strain/Indicator: TA98, Metabolic Activation: Rat, liver, S-9, Aroclor 1254, Method: Standard Plate) was “inactive; negative (purity 92.4%)”. For the same compound, the mutagenic call (Test System: Ames Salmonella typhimurium, Strain/Indicator: TA100, Metabolic Activation: None, Method: Standard Plate) was “inactive; negative (purity 92.4%)”, the mutagenic call (Test System: Ames Salmonella typhimurium, Strain/Indicator: TA100, Metabolic Activation: Rat, liver, S-9, Aroclor 1254, Method: Standard Plate) was “inactive; negative (purity 92.4%)” and the mutagenic call (Test System: Ames Salmonella typhimurium, Strain/Indicator: TA1535, Metabolic Activation: None, Method: Standard Plate) was “inactive; negative (purity 92.4%)”. For the same compound, the mutagenic call (Test System: Ames Salmonella typhimurium, Strain/Indicator: TA1535, Metabolic Activation: Rat, liver, S-9, Aroclor 1254, Method: Standard Plate) was “inactive; negative (purity 92.4%)”, the mutagenic call (Test System: Ames Salmonella typhimurium, Strain/Indicator: TA1537, Metabolic Activation: None, Method: Standard Plate) was “inactive; negative (purity 92.4%)” and the mutagenic call (Test System: Ames Salmonella typhimurium, Strain/Indicator: TA1537, Metabolic Activation: Rat, liver, S-9, Aroclor 1254, Method: Standard Plate) was “inactive; negative (purity 92.4%)”. For the same compound, the mutagenic call (Test System: Ames Salmonella typhimurium, Strain/Indicator: TA1538, Metabolic Activation: None, Method: Standard Plate) was “inactive; negative (purity 92.4%)”, the mutagenic call (Test System: Ames Salmonella typhimurium, Strain/Indicator: TA1538, Metabolic Activation: Rat, liver, S-9, Aroclor 1254, Method: Standard Plate) was “inactive; negative (purity 92.4%)” and the mutagenic call (Test System: UDS Rat hepatocytes, Strain/Indicator: Thymidine incorporation, Metabolic Activation: None, Method: Autoradiography) was “inactive; negative (purity 88.8%)”.

For `Cc1c[nH]c2ccccc12`, the mutagenic call [1] was “inactive; negative” and the mutagenic call (Test System: AMES SALMONELLA TYPHIMURIUM, Strain/Indicator: TA100, Metabolic Activation: RAT LIVER S-9, PHENOBARBITOL/BETA-NAPHTHOFLAVONE, Method: PREINCUBATION) was “inactive; negative”.

`O=P(O)(O)OP(=O)(O)OP(=O)(O)O` was tested, and the mutagenic call (Test System: AMES SALMONELLA TYPHIMURIUM, Strain/Indicator: TA98, Metabolic Activation: NONE, Method: PREINCUBATION) was “inactive; negative”, the mutagenic call (Test System: AMES SALMONELLA TYPHIMURIUM, Strain/Indicator: TA98, Metabolic Activation: RAT, LIVER, S-9, KC 500, Method: PREINCUBATION) was “inactive; negative” and the mutagenic call [1] was “inactive; negative”. For the same compound, the mutagenic call (Test System: AMES SALMONELLA TYPHIMURIUM, Strain/Indicator: TA100, Metabolic Activation: RAT, LIVER, S-9, KC 500, Method: PREINCUBATION) was “inactive; negative”, the mutagenic call (Test System: AMES SALMONELLA TYPHIMURIUM, Strain/Indicator: TA1535, Metabolic Activation: NONE, Method: PREINCUBATION) was “inactive; negative” and the mutagenic call (Test System: AMES SALMONELLA TYPHIMURIUM, Strain/Indicator: TA1535, Metabolic Activation: RAT, LIVER, S-9, KC 500, Method: PREINCUBATION) was “inactive; negative”. For the same compound, the mutagenic call (Test System: AMES SALMONELLA TYPHIMURIUM, Strain/Indicator: TA1537, Metabolic Activation: NONE, Method: PREINCUBATION) was “inactive; negative”, the mutagenic call (Test System: AMES SALMONELLA TYPHIMURIUM, Strain/Indicator: TA1537, Metabolic Activation: RAT, LIVER, S-9, KC 500, Method: PREINCUBATION) was “inactive; negative” and the mutagenic call (Test System: AMES SALMONELLA TYPHIMURIUM, Strain/Indicator: TA1538, Metabolic Activation: NONE, Method: PREINCUBATION) was “inactive; negative”. The mutagenic call (Test System: AMES SALMONELLA TYPHIMURIUM, Strain/Indicator: TA1538, Metabolic Activation: RAT, LIVER, S-9, KC 500, Method: PREINCUBATION) was “inactive; negative”, the mutagenic call (Test System: E. COLI, Strain/Indicator: WP2 UVRA, Metabolic Activation: NONE, Method: PREINCUBATION) was “inactive; negative” and the mutagenic call (Test System: E. COLI, Strain/Indicator: WP2 UVRA, Metabolic Activation: RAT, LIVER, S-9, KC 500, Method: PREINCUBATION) was “inactive; negative”.

`O=[N+]([O-])c1cc2c(cc3ccc4cccc5ccc2c3c45)o1` was tested, and the mutagenic call (Test System: AMES SALMONELLA TYPHIMURIUM, Strain/Indicator: TA98(NR), Metabolic Activation: NONE, Method: STANDARD PLATE) was “active; positive”, the mutagenic call (Test System: AMES SALMONELLA TYPHIMURIUM, Strain/Indicator: TA98(NR), Metabolic Activation: RAT, LIVER, S-9, AROCLOR 1254, Method: STANDARD PLATE) was “active; positive” and the mutagenic call [2] was “active; positive”. For the same compound, the mutagenic call (Test System: AMES SALMONELLA TYPHIMURIUM, Strain/Indicator: TA98, Metabolic Activation: RAT, LIVER, S-9, AROCLOR 1254, Method: STANDARD PLATE) was “active; positive”.

`CS(=O)(=O)OCCCNCCCOS(C)(=O)=O` was tested, and the mutagenic call (Test System: AMES SALMONELLA TYPHIMURIUM, Strain/Indicator: TA98, Metabolic Activation: S-9, Method: STANDARD PLATE) was “inactive; negative”, the mutagenic call (Test System: AMES SALMONELLA TYPHIMURIUM, Strain/Indicator: TA100, Metabolic Activation: S-9, Method: STANDARD PLATE) was “inactive; negative” and the mutagenic call (Test System: AMES SALMONELLA TYPHIMURIUM, Strain/Indicator: TA102, Metabolic Activation: S-9, Method: STANDARD PLATE) was “inactive; negative”. For the same compound, the mutagenic call (Test System: AMES SALMONELLA TYPHIMURIUM, Strain/Indicator: TA1537, Metabolic Activation: S-9, Method: STANDARD PLATE) was “active; positive” and the mutagenic call (Test System: E. COLI, Strain/Indicator: WP2 (HCR), Metabolic Activation: S-9, Method: STANDARD PLATE) was “active; positive”.

For `O=c1[nH]cc(/C=C/Br)c(=O)[nH]1`, the mutagenic call (Test System: CHINESE HAMSTER V-79, Strain/Indicator: V-79/8-AZAGUANINE, Metabolic Activation: NONE) was “inactive; negative” and the mutagenic call (Test System: UDS RODENT HEPATOCYTES, Strain/Indicator: THY INCORP, Metabolic Activation: NONE) was “inactive; negative”.

`COc1cc(/C=C/C(=O)O[C@H]2CC[C@]34C[C@]35CC[C@]3(C)[C@@H]([C@H](C)CCC=C(C)C)CC[C@@]3(C)[C@@H]5CC[C@H]4C2(C)C)ccc1O` was tested, and the mutagenic call [2] was “inactive; negative”, the mutagenic call (Test System: AMES SALMONELLA TYPHIMURIUM, Strain/Indicator: TA98, Metabolic Activation: S9, Method: STANDARD PLATE) was “inactive; negative” and the mutagenic call (Test System: AMES SALMONELLA TYPHIMURIUM, Strain/Indicator: TA100, Metabolic Activation: NONE, Method: STANDARD PLATE) was “inactive; negative”. The mutagenic call (Test System: AMES SALMONELLA TYPHIMURIUM, Strain/Indicator: TA100, Metabolic Activation: S9, Method: STANDARD PLATE) was “inactive; negative”, the mutagenic call (Test System: AMES SALMONELLA TYPHIMURIUM, Strain/Indicator: TA1535, Metabolic Activation: NONE, Method: STANDARD PLATE) was “inactive; negative” and the mutagenic call (Test System: AMES SALMONELLA TYPHIMURIUM, Strain/Indicator: TA1535, Metabolic Activation: S9, Method: STANDARD PLATE) was “inactive; negative”. The mutagenic call (Test System: AMES SALMONELLA TYPHIMURIUM, Strain/Indicator: TA1537, Metabolic Activation: NONE, Method: STANDARD PLATE) was “inactive; negative”, the mutagenic call (Test System: AMES SALMONELLA TYPHIMURIUM, Strain/Indicator: TA1537, Metabolic Activation: S9, Method: STANDARD PLATE) was “inactive; negative” and the mutagenic call (Test System: E.COLI, Strain/Indicator: WP2 UVRA, Metabolic Activation: NONE, Method: STANDARD PLATE) was “inactive; negative”. The mutagenic call (Test System: E.COLI, Strain/Indicator: WP2 UVRA, Metabolic Activation: S9, Method: STANDARD PLATE) was “inactive; negative”.
